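Interpolation was linear, between the two tested concentrations surrounding the appropriate level; five concentrations were tested over 48 hours in 96-well plates. The concentration for 50% growth inhibition is given as GI50. At the TGI there is no net growth.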
Key:
Assay in all cases: NCI anticancer screen, dose series, 48 h
786-0 renal = tested on: 786-0 renal
A498 renal = tested on: A498 renal
A549 NSCLC = tested on: A549 NSCLC
ACHN renal = tested on: ACHN renal
BT-549 breast = tested on: BT-549 breast
CAKI-1 renal = tested on: CAKI-1 renal
CCRF-CEM leukemia = tested on: CCRF-CEM leukemia
COLO 205 colon = tested on: COLO 205 colon
DU-145 prostate = tested on: DU-145 prostate
EKVX NSCLC = tested on: EKVX NSCLC
HCC-2998 colon = tested on: HCC-2998 colon
HCT-116 colon = tested on: HCT-116 colon
HCT-15 colon = tested on: HCT-15 colon
HL-60(TB) leukemia = tested on: HL-60(TB) leukemia
HOP-62 NSCLC = tested on: HOP-62 NSCLC
HOP-92 NSCLC = tested on: HOP-92 NSCLC
HS 578T breast = tested on: HS 578T breast
HT29 colon = tested on: HT29 colon
K-562 leukemia = tested on: K-562 leukemia
KM12 colon = tested on: KM12 colon
LOX IMVI melanoma = tested on: LOX IMVI melanoma
M14 melanoma = tested on: M14 melanoma
MCF7 breast = tested on: MCF7 breast
MDA-MB-231 breast = tested on: MDA-MB-231 breast
MDA-MB-435 = tested on: MDA-MB-435
MOLT-4 leukemia = tested on: MOLT-4 leukemia
NCI-H226 lung = tested on: NCI-H226 lung
NCI-H23 lung = tested on: NCI-H23 lung
NCI-H460 lung = tested on: NCI-H460 lung
NCI-H522 lung = tested on: NCI-H522 lung
NCI/ADR-RES ovarian = tested on: NCI/ADR-RES ovarian
OVCAR-3 ovarian = tested on: OVCAR-3 ovarian
OVCAR-4 ovarian = tested on: OVCAR-4 ovarian
OVCAR-5 ovarian = tested on: OVCAR-5 ovarian
OVCAR-8 ovarian = tested on: OVCAR-8 ovarian
PC-3 prostate = tested on: PC-3 prostate
RPMI-8226 leukemia = tested on: RPMI-8226 leukemia
RXF 393 renal = tested on: RXF 393 renal
SF-268 CNS = tested on: SF-268 CNS
SF-295 CNS = tested on: SF-295 CNS
SF-539 CNS = tested on: SF-539 CNS
SK-MEL-2 melanoma = tested on: SK-MEL-2 melanoma
SK-MEL-28 melanoma = tested on: SK-MEL-28 melanoma
SK-MEL-5 melanoma = tested on: SK-MEL-5 melanoma
SK-OV-3 ovarian = tested on: SK-OV-3 ovarian
SN12C renal = tested on: SN12C renal
SNB-19 CNS = tested on: SNB-19 CNS
SNB-75 CNS = tested on: SNB-75 CNS
SR leukemia = tested on: SR leukemia
SW-620 colon = tested on: SW-620 colon
T-47D breast = tested on: T-47D breast
TK-10 renal = tested on: TK-10 renal
U251 CNS = tested on: U251 CNS
UACC-257 melanoma = tested on: UACC-257 melanoma
UACC-62 melanoma = tested on: UACC-62 melanoma

What does the source list for `Cn1c(O)c(N=NC(N)=S)c2ccccc21`?
GI50 (786-0 renal): 58.7 µM; TGI (786-0 renal): > 100 µM; GI50 (A498 renal): 97.7 µM; TGI (A498 renal): > 100 µM; GI50 (A549 NSCLC): 62.6 µM; TGI (A549 NSCLC): > 100 µM; GI50 (ACHN renal): 51.2 µM; TGI (ACHN renal): > 100 µM; GI50 (BT-549 breast): > 100 µM; TGI (BT-549 breast): > 100 µM; GI50 (CAKI-1 renal): 23.6 µM; TGI (CAKI-1 renal): 91.7 µM; GI50 (CCRF-CEM leukemia): 62.1 µM; TGI (CCRF-CEM leukemia): > 100 µM; GI50 (COLO 205 colon): 94.9 µM; TGI (COLO 205 colon): > 100 µM; GI50 (DU-145 prostate): 53.7 µM; TGI (DU-145 prostate): > 100 µM; GI50 (EKVX NSCLC): 2040 nM; TGI (EKVX NSCLC): > 100 µM; GI50 (HCC-2998 colon): > 100 µM; TGI (HCC-2998 colon): > 100 µM; GI50 (HCT-116 colon): 40.9 µM; TGI (HCT-116 colon): > 100 µM; GI50 (HCT-15 colon): 44.6 µM; TGI (HCT-15 colon): > 100 µM; GI50 (HL-60(TB) leukemia): 37.9 µM; TGI (HL-60(TB) leukemia): > 100 µM; GI50 (HOP-62 NSCLC): 33.5 µM; TGI (HOP-62 NSCLC): > 100 µM; GI50 (HOP-92 NSCLC): 88 µM; TGI (HOP-92 NSCLC): > 100 µM; GI50 (HS 578T breast): 23.4 µM; TGI (HS 578T breast): > 100 µM; GI50 (HT29 colon): > 100 µM; TGI (HT29 colon): > 100 µM; GI50 (K-562 leukemia): 95.2 µM; TGI (K-562 leukemia): > 100 µM; GI50 (KM12 colon): 88.3 µM; TGI (KM12 colon): > 100 µM; GI50 (LOX IMVI melanoma): 58.5 µM; TGI (LOX IMVI melanoma): > 100 µM; GI50 (M14 melanoma): 95.9 µM; TGI (M14 melanoma): > 100 µM; GI50 (MCF7 breast): 20.3 µM; TGI (MCF7 breast): > 100 µM; GI50 (MDA-MB-231 breast): > 100 µM; TGI (MDA-MB-231 breast): > 100 µM; GI50 (MDA-MB-435): > 100 µM; TGI (MDA-MB-435): > 100 µM; GI50 (MOLT-4 leukemia): > 100 µM; TGI (MOLT-4 leukemia): > 100 µM; GI50 (NCI-H226 lung): > 100 µM; TGI (NCI-H226 lung): > 100 µM; GI50 (NCI-H23 lung): > 100 µM; TGI (NCI-H23 lung): > 100 µM; GI50 (NCI-H460 lung): 33.9 µM; TGI (NCI-H460 lung): > 100 µM; GI50 (NCI-H522 lung): 43.9 µM; TGI (NCI-H522 lung): > 100 µM; GI50 (NCI/ADR-RES ovarian): 47.4 µM; TGI (NCI/ADR-RES ovarian): > 100 µM; GI50 (OVCAR-3 ovarian): 33.4 µM; TGI (OVCAR-3 ovarian): > 100 µM; GI50 (OVCAR-4 ovarian): 82.1 µM; TGI (OVCAR-4 ovarian): > 100 µM; GI50 (OVCAR-5 ovarian): > 100 µM; TGI (OVCAR-5 ovarian): > 100 µM; GI50 (OVCAR-8 ovarian): 54.8 µM; TGI (OVCAR-8 ovarian): > 100 µM; GI50 (PC-3 prostate): 79.9 µM; TGI (PC-3 prostate): > 100 µM; GI50 (RPMI-8226 leukemia): > 100 µM; TGI (RPMI-8226 leukemia): > 100 µM; GI50 (RXF 393 renal): 32 µM; TGI (RXF 393 renal): > 100 µM; GI50 (SF-268 CNS): 62.8 µM; TGI (SF-268 CNS): > 100 µM; GI50 (SF-295 CNS): 27.1 µM; TGI (SF-295 CNS): > 100 µM; GI50 (SF-539 CNS): > 100 µM; TGI (SF-539 CNS): > 100 µM; GI50 (SK-MEL-2 melanoma): > 100 µM; TGI (SK-MEL-2 melanoma): > 100 µM; GI50 (SK-MEL-28 melanoma): > 100 µM; TGI (SK-MEL-28 melanoma): > 100 µM; GI50 (SK-MEL-5 melanoma): 38.1 µM; TGI (SK-MEL-5 melanoma): > 100 µM; GI50 (SK-OV-3 ovarian): 66.8 µM; TGI (SK-OV-3 ovarian): > 100 µM; GI50 (SN12C renal): > 100 µM; TGI (SN12C renal): > 100 µM; GI50 (SNB-19 CNS): > 100 µM; TGI (SNB-19 CNS): > 100 µM; GI50 (SNB-75 CNS): 18.3 µM; TGI (SNB-75 CNS): 98 µM; GI50 (SR leukemia): 90.1 µM; TGI (SR leukemia): > 100 µM; GI50 (SW-620 colon): 54.6 µM; TGI (SW-620 colon): > 100 µM; GI50 (T-47D breast): 43.9 µM; TGI (T-47D breast): > 100 µM; GI50 (TK-10 renal): > 100 µM; TGI (TK-10 renal): > 100 µM; GI50 (U251 CNS): 46.7 µM; TGI (U251 CNS): > 100 µM; GI50 (UACC-257 melanoma): 71.6 µM; TGI (UACC-257 melanoma): > 100 µM; GI50 (UACC-62 melanoma): > 100 µM; TGI (UACC-62 melanoma): > 100 µM

From PubChem BioAssay (NCI)
